Reference: patent publication US20240269120A1, “Method for Treating an Autoimmune and Inflammatory Disease” (Cellestia Biotech AG, priority 2021, published 2024)

How the values were obtained:
Treg cells = test: Treg expansion in activated human PBMC cultures (anti-CD3/anti-CD28, flow cytometry); format: cell-based; conditions: anti-CD3 and anti-CD28, 96 hours, control 0%
Method: Human PBMCs and mouse splenocyte in vitro stimulation and treatment: Human peripheral blood mononuclear cells (PBMCs) and mouse splenocytes from donors were stimulated in vitro with anti-CD3 and anti-CD28 antibodies. The stimulated cells were simultaneously treated with compounds for 96 hours. The T cells were profiled for different cell surface and intracellular markers and proliferation by flow cytometry.
(§1) Flow cytometry analysis: Flow cytometry analysis was performed to quantify cell surface and intracellular markers expression and measure cell division index.
Viability staining: Cells were transferred into a 96 well conical bottom plate and washed with serum free PBS1×. Cells were incubated with Zombie NIR (Biolegend #423105)+FC block ([…]) for 20 minutes at 4° C. Cells were washed with staining medium (SM) (1×HBSS, 2.5 mM EDTA, 2% NBS
Cell surface marker staining: Cells were stained with antibodies against cell surface markers (CD3, CD4, CD8, CD25, Biolegend or ThermoFisher) for 20 minutes at 4° C. Cells were washed with SM before continuing with nuclear staining.
FOXP3 nuclear staining: Cells were fixed and permeabilized with Foxp3 Transcription Factor Staining Buffer Set (ThermoFisher #00-5523) for 20 minutes at room temperature. […] Results are finally analysed with the software FlowJo v.10.7.1.

[1] = test system: Treg cells (CD4+CD25highFOXP3+); test: In vivo dosing of C57BL6 mice, Treg cells in spleen; design: species or system mouse; conditions: C57BL6 wild type mice, 60 mg/kg QD
Method: C57BL6 wild type mice were treated with 6-(4-tert-butylphenoxy)pyridin-3-amine at 60 mg/kg dose (QD). […] (*) p<0.05. Each bar represents the mean±SEM (N=3 replicates).
(§2) In vivo treatment of mice and pharmacodynamic response: Mice experiments were performed in compliance with authorization to perform animal experiments (VD3323). Briefly, 6-8 weeks old wild type C57Bl6 mice were subcutaneously or intraperitoneally dosed with vehicle or compounds for different durations. Mice were sacrificed, spleens were harvested 24 hours post-last dosing. Splenocytes were analyzed for cell surface and intracellular markers expression using flow cytometry. RNA expression analyses were performed using quantitative real time PCR.
as §1

IL-12a mRNA = test: Quantitative RT-PCR of splenocyte mRNA after in vivo dosing: IL-12a; design: species or system mouse; conditions: in vivo treated mice vs vehicle; p<0.01; FIG. 4
Method: FIG. 4: In vivo 6-(4-tert-butylphenoxy)pyridin-3-amine dosing leads to a downregulation of pro-inflammatory cytokine IL-12a mRNA in mouse spleen. […] Each bar represents the mean±SD (N=3 replicates). (**) p<0.01
as §2

activated CD4 T cells = test: Cell proliferation assay (Cell trace violet), activated CD4 T cells; format: cell-based; conditions: control 0%
Method: (§3) Following PBMC injections, mice were treated with vehicle or 6-(4-tert-butylphenoxy)pyridin-3-amine or Ruxolitinib starting at day 0. Mice were monitored from 60-85 days for symptoms of GvHD and scored according to a standard clinical scoring system for GvHD (Naserian et al., 2018) (see table 1) and a cumulative clinical score was obtained by addition of clinical score for individual parameters. A maximum score of 6 is measured when reaching endpoint. Cell proliferation assay: The effect of compounds on T cell proliferation was quantified using Cell trace violet (CTV). PBMCs/splenocytes were incubated with CTV for 20 minutes at 37° C. Cells were washed twice with RPMI complete medium. CTV labelled cells were stimulated with anti-CD3 and anti-CD28 antibodies and treated with control or compounds and cultured at 37° C. for 96 hours. The cell division index was measured by flow cytometry.
as §1

activated CD8 T cells = test: Cell proliferation assay (Cell trace violet), activated CD8 T cells; format: cell-based; conditions: control 0%
Method: as §3, §1

[2] = test system: NSG mice injected with human PBMCs (GvHD); test: Humanized GvHD mouse model, ex vivo pre-treated PBMCs plus in vivo treatment; conditions: sum of individual scores; label = ex vivo PBMC treatment/in vivo treatment; DMSO/Vehicle 7.8
Method: Humanized GvHD mouse model: 6-8 weeks old NSG mice were intraperitoneally injected with 10 million human peripheral blood mononuclear cells (PBMCs) as below:
A cumulative GvHD clinical score was calculated by addition of scores for individual parameters (e.g. cumulative score=BWL+posture+activity+fur texture+skin integrity+paleness).
Ex-vivo pre-treatment of PBMCs and in-vivo treatment of mice: Human PBMCs were ex-vivo treated with either DMSO or 6-(4-tert-butylphenoxy)pyridin-3-amine and then intraperitoneally injected into NSG mice. Mice were in vivo treated with different compounds as below: • i. DMSO ex vivo hPBMCs treatment (7 hrs), plus vehicle in vivo treatment • ii. DMSO ex vivo hPBMCs treatment (7 hrs), plus 6-(4-tert-butylphenoxy)pyridin-3-amine in vivo treatment for 3 days • iii. 6-(4-tert-butylphenoxy)pyridin-3-amine ex vivo hPBMCs treatment (7 hrs), plus 6-(4-tert-butylphenoxy)pyridin-3-amine in vivo treatment for 3 days • iv. DMSO ex vivo PBMCs treatment (7 hrs) plus Ruxolitinib in vivo treatment for 3 days • v. 6-(4-tert-butylphenoxy)pyridin-3-amine ex vivo hPBMCs treatment (7 hrs), plus Ruxolitinib in vivo treatment for 3 days
as §3

IL-6 = test: Cytokine analysis in allogeneic bone marrow transplant (LEGENDplex): IL-6; format: in vivo, mouse; conditions: allo-BM+splenocyte transplanted mice, day 36, vs vehicle; FIG. 6
Method: (§4) Allogeneic Bone marrow transplant: Recipient Balb/c mice were irradiated twice 3.75Gy (T=0 and T=4 h) in an X-ray source irradiator before transplantation at T=8 h. Treatment with antibiotics (Nopil) and analgesic (Dafalgan) was supplemented to drinking water 4 days before injection. Irradiated recipient Balb/c mice were transplanted with 5 million T cell depleted bone marrow+1 million splenocytes. Allogeneic recipient animals were treated with vehicle or 6-(4-tert-butylphenoxy)pyridin-3-amine subcutaneously at 20 mg/kg for two days immediately after allo-BM transplant, given a 10 days treatment holiday to recover body weight loss due to whole body irradiation and then treatment continued at 20 mg/kg. […] Animals were monitored for symptoms of GvHD development (severe body weight loss, alopecia and diarrhea.
Cytokine analysis in allogeneic Bone marrow transplant: The recipient animals were bled on day 36 and blood plasma was extracted to determine inflammatory cytokine concentration (IFNγ, IL-6, IL-17a) by LEGENDplex™ multiplexed assay.

regulatory T cells = test: Regulatory T cells in allo-BM + splenocyte transplanted mice; format: in vivo, mouse
Method: as §4

CC(C)(C)c1ccc(Oc2ccc(N)cn2)cc1 [6-(4-tert-butylphenoxy)pyridin-3-amine]
expansion of Treg cells (Treg cells): 112%
Treg cells (CD4+CD25highFOXP3+) number ([1]; p<0.05, FIG. 2a): significantly increased
Treg cells (CD4+CD25highFOXP3+) frequency ([1]; p<0.05, FIG. 2b): significantly increased
IL-12a transcript in splenocytes (IL-12a mRNA): downregulation
Percentage inhibition of CD4 T cells (proliferation) (activated CD4 T cells): 81%
Percentage inhibition of CD8 T cells (proliferation) (activated CD8 T cells): 56%
Cumulative GvHD score [2]: decreased cumulative GvHD score significantly
IL-6 in blood plasma (IL-6): downregulation
regulatory T cells (regulatory T cells): expansion of regulatory T cells
